Laboratory results from ChEMBL document CHEMBL4665663, “Anti-atherosclerosis effect of HS donors based on nicotinic acid and chlorfibrate structures” (Bioorg Med Chem, 2019).
Active and inactive are the calls of the source. The rule behind the calls is not given here.

Legend:
[1] = Prodrug release in phosphate buffer containing L-cysteine assessed as H2S release by measuring H2S releasing half-life at 60 uM by methylene blue method; assay type: ADME
H9c2 = assay: Cytotoxicity against rat H9c2 cells assessed as reduction in cell viability after 48 hrs by MTT assay; assay type: cell-based; conditions: H9c2, 48 h
HUVEC [2] = assay: Cytotoxicity against human HUVEC cells assessed as reduction in cell viability after 48 hrs by MTT assay; assay type: cell-based
RAW264.7 [3] = assay: Cytotoxicity against mouse RAW264.7 cells assessed as reduction in cell viability after 48 hrs by MTT assay; assay type: cell-based; conditions: RAW264.7, 48 h
WI-38 = assay: Cytotoxicity against human WI38 cells assessed as reduction in cell viability after 48 hrs by MTT assay; assay type: cell-based; conditions: WI-38, 48 h
RAW264.7 [4] = assay: Anti-atherosclerotic activity in mouse RAW264.7 cells assessed as decrease in ox-LDL induced intracellular lipid accumulation by measuring reduction in total cholesterol level at 10 to 50 uM preincubated for 10 mins followed by ox-LDL stimulation and measured after 24 hrs by colorimetric method; assay type: functional, cell-based; conditions: dose microM 10-50, time 10.0 min
RAW264.7 [5] = assay: Anti-atherosclerotic activity in mouse RAW264.7 cells assessed as decrease in ox-LDL induced intracellular lipid accumulation by measuring reduction in free cholesterol level at 10 to 50 uM preincubated for 10 mins followed by ox-LDL stimulation and measured after 24 hrs by colorimetric method; assay type: functional, cell-based; conditions: dose microM 10-50, time 10.0 min
RAW264.7 [6] = assay: Antioxidant activity in mouse RAW264.7 cells assessed as reduction in ox-LDL induced ROS accumulation at 10 uM preincubated for 10 mins followed by ox-LDL stimulation and measured after 24 hrs by DCFH-DA staining based fluorescence microscopic analysis; assay type: functional, cell-based
RAW264.7 [7] = assay: Antioxidant activity in mouse RAW264.7 cells assessed as reduction in ox-LDL induced oxidative stress by measuring decrease in MDA level at 10 to 50 uM preincubated for 10 mins followed by ox-LDL stimulation and measured after 24 hrs; assay type: functional, cell-based; conditions: dose microM 10-50, time 10.0 min
RAW264.7 [8] = assay: Antioxidant activity in mouse RAW264.7 cells assessed as reduction in ox-LDL induced oxidative stress by measuring increase in SOD level at 10 to 50 uM preincubated for 10 mins followed by ox-LDL stimulation and measured after 24 hrs; assay type: functional, cell-based; conditions: dose microM 10-50, time 10.0 min
RAW264.7 [9] = assay: Anti-inflammatory activity in mouse RAW264.7 cells assessed as decrease in ox-LDL induced inflammatory reaction by measuring decrease in TNF-alpha production at 10 to 50 uM preincubated for 10 mins followed by ox-LDL stimulation and measured after 24 hrs; assay type: functional, cell-based; conditions: dose microM 10-50, time 10.0 min
RAW264.7 [10] = assay: Anti-inflammatory activity in mouse RAW264.7 cells assessed as decrease in ox-LDL induced inflammatory reaction by measuring increase in IL-10 production at 10 to 50 uM preincubated for 10 mins followed by ox-LDL stimulation and measured after 24 hrs; assay type: functional, cell-based; conditions: dose microM 10-50, time 10.0 min
RAW264.7 [11] = assay: Inhibition of macrophage foam cell formation in mouse RAW264.7 cells assessed as reduction in ox-LDL induced red lipid droplets formation at 10 uM preincubated for 10 mins followed by ox-LDL stimulation and measured after 24 hrs by oil red O staining based inverted microscopy analysis; assay type: functional
HUVEC [12] = assay: Cytoprotective activity against ox-LDL induced cell damage in human HUVEC cells assessed as increase in cell viability at 50 to 100 uM preincubated for 10 mins followed by ox-LDL stimulation measured after 24 hrs by MTT assay; assay type: functional, cell-based; conditions: dose microM 50-100, time 10.0 min
HUVEC [13] = assay: Cytotoxicity against human HUVEC cells assessed as reduction in cell viability at 10 to 100 uM by MTT assay; assay type: cell-based; conditions: dose 10-100 µM

SMILES	t1/2 [1] [min]	IC50 (H9c2) [µM]	IC50 (HUVEC [2]) [µM]	IC50 (RAW264.7 [3]) [µM]	IC50 (WI-38) [µM]	Activity (RAW264.7 [4])	Activity (RAW264.7 [5])	Activity (RAW264.7 [6])	Activity (RAW264.7 [7])	Activity (RAW264.7 [8])	Activity (RAW264.7 [9])	Activity (RAW264.7 [10])	inhibition (RAW264.7 [11])	Activity (HUVEC [12])	Activity (HUVEC [13])
O=C(Oc1ccc(-c2cc(=S)ss2)cc1)c1cccnc1	3.3	627	562	> 800	734										
O=C(O)c1cccnc1						Active	Active	inactive	inactive	inactive	Active	Active	Active		
NC(=S)c1ccc(OC(=O)c2cccnc2)cc1	2.1	754	683	> 800	> 800										
CC(C)(Oc1ccc(Cl)cc1)C(=O)NCCOC(=S)Nc1ccc([N+](=O)[O-])cc1Cl	1.7	> 800	729	> 800	> 800									Active	Non-Toxic
COc1ccc(NC(=S)OCCNC(=O)c2cccnc2)cc1	0.8	694	550	> 800	781										
CC(C)(Oc1ccc(Cl)cc1)C(=O)Oc1ccc(C(N)=S)cc1	5.6	797	755	> 800	> 800										
CC(C)(Oc1ccc(Cl)cc1)C(=O)Oc1ccc(-c2cc(=S)ss2)cc1	4.2	675	616	> 800	764										
O=C(NCCOC(=S)Nc1ccccc1)c1cccnc1	1.2	> 800	724	> 800	> 800										
CC(C)(Oc1ccc(Cl)cc1)C(=O)NCCOC(=S)Nc1ccc(F)cc1	1.2	> 800	773	> 800	> 800										
